The test system of experiment [1] is CD45+/CD34+ and CD45+/CD34- cell populations in peripheral blood. Put plainly: Flow cytometry of peripheral blood mononuclear cells after PTH or G-CSF in healthy mice. The experiment is classed as in vivo, C57BL/6 mice. The protocol: (§1) For the experiments healthy age- and sex-matched (male, 8-12 weeks of age) C57BL/6 mice (Charles River) were used. Animal care and all experimental procedures were performed in strict accordance to the German and National Institutes of Health animal legislation guidelines and were approved by the local animal care and use committees.
(§2) Mice were divided into the following groups: 1) administration of saline daily for 6 days, sacrificed at day 7 (n=6). 2) administration of PTH (Bachem) daily for 6 consecutive days (80 μg per kg body weight per day, intraperitoneally), sacrificed at day 7 (n=6). 3) administration of PTH daily for 14 consecutive days, sacrificed at day 15 (n=6). 4) administration of G-CSF (Amgen Biologicals) daily for 5 consecutive days (200 μg per kg body weight per day, intraperitoneally), sacrificed at day 6 (n=6).
(§3) at day 6, 1 ml of peripheral blood was harvested from each mouse by aspirating the carotid artery. Bone marrow cells were obtained by flushing the tibias and femurs from the euthanized mice. Mononuclear cells were separated by density-gradient centrifugation using 1.077 g/mL Histopaque solution (Sigma Chemicals), purified and resuspended in phosphate-buffered saline (PBS) containing 1% bovine serum albumin. Cells were incubated for 40 minutes in the dark at 4° C. with following fluorescein-isothiocyanate (FITC), phycoerythrin (PE), and peridinin-chlorphyll-protein (PerCP) conjugated monoclonal antibodies: CD45-PerCP, C34-FITC, CD31-PE, Sca-1-PE and c-kit-PE (all from BD Pharmingen). Isotype-identical antibodies (BD Pharmingen) served as controls. Cells were analyzed by 3-color flow cytometry using a Coulter® Epics® XL-MCL™ flow cytometer (Beckman Coulter). Each analysis included 20000 events. The absolute number of antigen-positive cells per ml of whole blood was calculated by multiplying the percentage of antigen-positive cells with the total number of mononuclear cells per ml of blood detected by the conventional hematological cell analyzer. The number of lymphocytes together with the number of monocytes comprised the total number of mononuclear cells.
Background: A flow cytometer gives signals particle by particle.

Experiment [2] concerns BrdU and Ki67 positive cells. Put plainly: Immunohistochemistry of cell proliferation (BrdU, Ki67) after MI, PTH treatment. The class given is in vivo, C57BL/6 mice. The method, then: After occlusion of the LAD, mice were divided into the following groups 1) subcutaneous administration of saline daily for 5 days, sacrificed at day 6 (n=10) and day 30 (n=15); 2) administration of rat PTH (1-34) daily for 5 and 14 consecutive days (80 μg/kg/d s.c., Bachem), sacrificed at day 6 (n=9) and day 30 (n=15); 3) sham operated animals sacrificed at day 30 (n=5), and not operated control animals receiving saline (n=6) sacrificed at day 6 and at day 30. All animals received BrdU ([…]) for 5 consecutive days. BrdU and cytokine treatment were started 12-24 hours after LAD occlusion.
At day 6 (n=10) and day 30 (n=10), hearts were excised. After fixation in 4% phosphate buffered formalin the hearts were cut transversally into 2 mm thick slices and embedded in paraffin. 4 μm thick sections were cut and mounted on positively charged glass slides. Standard histological procedures (hematoxilin/eosin and Masson trichrome) and immunostaining (see below) were performed.
For immunostaining mounted tissue sections were deparaffinized by rinsing 3×5 minutes in xylene followed by 2×5 minutes 100%, 2×5 minutes 96%, and 2×5 minutes 70% ethanol rinses. Endogenous peroxidases were quenched in 7.5% H2O2 in distilled water for 10 minutes. After rinsing in distilled water for 10 minutes and 2×5 minutes in TRIS-Buffer, pH 7.5, the slides were incubated at room temperature for 60 minutes with following primary antibodies: CD45 (rat anti-mouse, BD Pharmingen), ICAM-1 (goat anti-mouse, R&D), CD34 (rat anti-mouse, Linaris), Ki67 (goat anti-mouse, Santa Cruz) or BrdU (mouse monoclonal anti-BrdU, BD Pharmingen). Pre-treatment was performed for 30 minutes (microwave 750 W) using TRS 6 (Dako) for CD45, Glykol (biologo) for CD34, Retrievagen A (BD Pharmingen) for BrdU, and citrate buffer (10 mM, pH 6.0) for Ki67.
For detection of the immunoreaction Avidin-Biotinylated enzyme Comlex-Rat IgG, Avidin-Biotinylated enzyme Comlex-Goat IgG (both from Vector) or rabbit anti-goat IgG (DAKO) were used. Aminoethylcarbazol was used as chromogen (incubation 10 minutes). Thereafter, the slides were rinsed in running water and counterstained with hematoxilin Gill's Formula (Vector). Cover slides were mounted with Kaiser's glycerol gelatine. Doublestaining was performed for CD31 and Ki67 using an Avidin-Biotinylated enzyme Comlex-Goat IgG detection system and diaminobenzidine as chromogen and the APAAP-Rat system and chromogen red (all from Dako), respectively.
Quantitative assessments: a) granulation tissue: the number of BrdU and Ki76 positive nuclei were related to the total number of nuclei quantified in the granulation tissue. b) arterioles: only arterioles with high proliferative activity were enclosed.

For a further experiment, the system named is SDF-1. Put plainly: SDF-1 expression in ischemic myocardium after PTH treatment. To be noted: 48 hours after PTH treatment. The class given is in vivo, mice.
Experiment [3] has as its system CD45+/CD34+ and CD45+/CD34- cell populations in bone marrow. Put plainly: Flow cytometry of bone marrow cells after PTH or G-CSF in healthy mice. The experiment is classed as in vivo, C57BL/6 mice. The protocol: as §1, §2, §3
The subject of another experiment is SCF. Briefly: SCF serum level by ELISA after PTH. To be noted: day 6 of PTH stimulation. The experiment is classed as in vivo, C57BL/6 mice. The protocol:
as §2
G-CSF and SCF serum levels were determined by ELISA (Mouse G-CSF and Mouse SCF, RayBiotech).
(An ELISA detects its analyte on a solid surface through an enzyme-linked reagent.)

For the next experiment, the system named is myocardial infarction. Put plainly: Survival after myocardial infarction (LAD occlusion), PTH treatment. To be noted: 4 weeks after myocardial infarction, PTH 80 μg/kg/d s.c. The experiment is classed as in vivo, C57BL/6 mice. The method, then: Myocardial infarction was induced in male C57BL/6 mice 8-12 weeks of age by surgical occlusion of the left anterior descending artery (LAD) through a left anterolateral approach. Mice were anesthetized by intraperitoneal injection of a mixture of 100 mg/kg ketamine (Sigma Chemical Co., St. Louis, Mo.) and 5 mg/kg Xylazine (Sigma), intubated and artificially ventilated by a mouse ventilator (HUGO SACHS, March, Germany) with 200 strokes/min and 200 μl/stroke. Animal care and all experimental procedures were performed in strict accordance to the German and National Institutes of Health animal legislation guidelines and were approved by the local animal care and use committees.
After occlusion of the LAD, mice were divided into the following groups 1) subcutaneous administration of saline daily for 5 days, sacrificed at day 6 (n=10) and day 30 (n=15); 2) administration of rat PTH (1-34) daily for 5 and 14 consecutive days (80 μg/kg/d s.c., Bachem), sacrificed at day 6 (n=9) and day 30 (n=15); 3) sham operated animals sacrificed at day 30 (n=5), and not operated control animals receiving saline (n=6) sacrificed at day 6 and at day 30. All animals received BrdU (50 μg/kg/d) for 5 consecutive days. […]
Results were expressed as mean±S.E.M. For statistical analyses the unpaired Student's t-test was used. Mortality was analyzed by the Kaplan-Meier-method. […]

Experiment [4] has as its system CD45/Sca-1 and CD45/CD34 positive stem cells. Briefly: PTH induced migration of CD45+ stem cells to the ischemic heart. The class given is in vivo, mice. To be noted: 48 hours after myocardial ischemia.

With rat PTH (1-34), the “increase of subpopulations of CD45+/CD34+ and CD45+/CD34- cells” value in experiment [1] (PTH 80 μg/kg/d for 6 or 14 days, peripheral blood) is recorded as 1.5- to 9.8 fold. Moreover, in experiment [1] (PTH 80 μg/kg/d vs G-CSF 200 μg/kg/d 5 days), the “mobilization of CD45+/CD34+ cells by PTH compared to G-CSF treatment” value is listed as 20-50%. Moreover, the “subtypes of CD45+/CD34+ and CD45+/CD34- cells in peripheral blood” value in experiment [1] (PTH day 6 and day 14, G-CSF day 6) is reported as “significant increase”. Besides, the “mobilization of stem cells which express c-kit” value in experiment [1] (in comparison to a control) is reported as 5 fold. Further, the “number of mobilized subtypes of CD45+/CD34+ cells, PTH compared with G-CSF” value in experiment [1] (peripheral blood) was “significant lower number”. Moreover, the “mobilized CD45+/CD34-/c-kit+ cells, PTH compared with G-CSF” value in experiment [1] (peripheral blood, p<0.05) is 49-50%. Moreover, in experiment [2] (6 days after MI), the “BrdU positive cells within the granulation tissue” value is 72.1±2.4%; the “Ki67 and BrdU positive cells within the remote area” value is on record as “less than 1%”; the “Ki67 positive cells within the granulation tissue” value was determined as 34.8±4.8%. Besides, the “Ki67 positive endothelial cells associated with CD31 positive arterioles” value in experiment [2] (compared to saline treated animals) was “high numbers”. The “BrdU positive cells in the periinfarct region” value in experiment [2] (day 30) was 99.1±25.0 /mm^2. The “homing factor SDF-1 in the ischemic myocardium” value in the experiment on SDF-1 is “upregulated”. Besides, the “subtypes of CD45+/CD34- cells in bone marrow” value in experiment [3] (PTH day 6, G-CSF) is recorded as “significant decrease”. In addition, the “subtypes of CD45+CD34+ cells in bone marrow” value in experiment [3] (PTH day 6 or day 14, G-CSF vs control group) is reported as “no significant change”. Also, in the experiment with SCF, the “serum level of SCF” value amounted to 594.6 ± 26.8 pg/mL. The survival rate in the experiment with myocardial infarction worked out at 60%. Moreover, the survival rate in the experiment on myocardial infarction (listed as rPTH (1-34)) is on record as 60.0%. For the same substance, the “migration of CD45/Sca-1 and CD45/CD34 positive stem cells to the heart” value in experiment [4] is on record as “enhanced migration”.

Values taken from patent publication US8455435B2, “Remedies for ischemia” (Ludwig-Maximilians-Universitat Munchen, priority 2006, dated 2013).
